Source: patent US20190209581A1, “DOSAGE REGIMEN FOR TREATMENT OF SOLID TUMORS” (Eli Lilly and Company, priority 2016, published 2019)

Assays:
Format in all cases: in vivo
Sprague Dawley rats = test: Toxicity study in rats, oral gavage, daily or 3 times/week for 2 weeks
Method: A study is carried out to assess the toxicity and toxicokinetics of 4,4,4-Trifluoro-N-[(1S)-2-[[(7S)-5-(2-hydroxyethyl)-6-oxo-7H-pyrido[2,3-d][3]benzazepin-7-yl]amino]-1-methyl-2-oxo-ethyl]butanamide in rats given oral gavage doses of 0, 1.3, or 4.3 mg/kg once daily for 2 weeks or 1, 3, 10, or 30 mg/kg 3 times/week for 2 weeks.
4,4,4-Trifluoro-N-[(1S)-2-[[(7S)-5-(2-hydroxyethyl)-6-oxo-7H-pyrido[2,3-d][3]benzazepin-7-yl]amino]-1-methyl-2-oxo-ethyl]butanamide is combined with a vehicle comprising 1% carboxymethylcellulose sodium, 0.25% polysorbate 80 and 0.05% Dow Corning® Antifoam 1510-US in purified water. Sprague Dawley CD®/IGS rats (crl:CD(SD)), International Genetic Standardization (IGS) 7-9 week old rats, 3/sex/group, Charles River Laboratories, Inc, are used for the study. Animals are fed ad libitum with 12 hours light, 12 hours dark cycle maintained in ventilated stainless-steel racks at an ambient temperature of 22.2+/[…] and relative humidity of 30% to 70%. The test compound is dosed according to Table 1. The test compound is administered by oral gavage in a volume of 10 mL/kg body weight. The duration of the study for all groups is 14 days.
Observations, at a minimum, for Groups 01, 06 and 07 are recorded daily before dosing, approximately one (1) hour postdose, and in the afternoon except afternoon observations are not recorded on weekends. Observations for Groups 02, 03, 04, and 05 are recorded beginning on Day 3. At a minimum, observations are recorded as described on dosing days. On non-dosing days, observations are recorded at approximately the same time as for groups receiving daily doses. Animals are weighed on Days 1, 3, 6, 10, and 14. Terminal body weights are collected at scheduled necropsy. Food consumption weights are recorded on Days 1, 3, 6, 10, and 14.

[1] = system: HCT 116 human colorectal cell line; test: Tumor growth inhibition, HCT 116 xenograft; details: HCT 116 in mice, oral 8 mg/kg, (Mon, Wed, Fri)x4; p <0.05 to <0.01
Method: (§1) To evaluate in vivo efficacy and effect of 4,4,4-Trifluoro-N-[(1S)-2-[[(7S)-5-(2-hydroxyethyl)-6-oxo-7H-pyrido[2,3-d][3]benzazepin-7-yl]amino]-1-methyl-2-oxo-ethyl]butanamide on inhibition of Notch processing pharmacodynamics (PD), several cell lines- and patient-derived xenograft models are used. A2780 is a human ovarian cell line (Sigma-Aldrich, No. 93112519); SW480 is a human colorectal cell line (ATCC No. CCL-228); HCT 116 is a human colorectal cell line (ATCC No. CCL-247); U-87 MG is a human glioblastoma cell line (ATCC No. HTB-14); A375 is a human malignant melanoma cell line (ATCC No. CRL-1619); K-562 is a human chronic myelogenous leukemia (CML) cell line characterized by the presence of a fusion transcript comprised of the Bcr and Abl1 genes (ATCC No. CCL-243); Jurkat; HEL 92.1.7 is a human erythroleukemia cell line (ATCC No. TIB-180). […] Tumor growth and body weight are monitored over time to evaluate efficacy and signs of toxicity. Bidimensional measurements of tumors are performed twice a week and tumor volumes are calculated based on the following formula: (Tumor Volume)=[(L)×(W2)×(Π/6)] where L is mid-axis length and W is mid-axis width. […] The log volume data are analyzed with a two-way repeated measures analysis of variance by time and treatment using the MIXED™ procedures in SAS™ software (version 8.2). […]

[2] = system: human colon carcinoma (EL1989); test: Tumor growth inhibition, patient-derived tumor model EL1989; details: EL1989 in mice, oral 10 mg/kg (Q2Dx7), 11-days OFF, 8 mg/kg (Mon, Wed, Fri)x3; p <0.0001
Method: as §1

[3] = system: human colon carcinoma (EL 1986); test: Tumor growth inhibition, patient-derived tumor model EL1986; details: EL1986 in mice, oral 8 mg/kg, (Mon, Wed, Fri)x5; p <0.0001
Method: as §1

For `C[C@H](NC(=O)CCC(F)(F)F)C(=O)N[C@@H]1C(=O)N(CCO)c2ncccc2-c2ccccc21` [Compound 1, 4,4,4-trifluoro-N-[(1S)-2-[[(7S)-5-(2-hydroxyethyl)-6-oxo-7H-pyrido[2,3-d][3]benzazepin-7-yl]amino]-1-methyl-2-oxo-ethyl]butanamide], the “Tolerability of once daily administration at same total weekly dose” value (Sprague Dawley rats; rat, in vivo) was “once daily administration is not tolerated”, the “Compound related toxicities, kidney” value (Sprague Dawley rats; rat, in vivo, 10 mg/kg) was “minimal to slight renal tubular degeneration” and the “Gastrointestinal toxicity, daily versus three times/week at same total weekly dose” value (Sprague Dawley rats; rats, 1.3 mg/kg daily or 3 mg/kg three times/week, 4.3 mg/kg daily or 10 mg/kg three times/week) was “more severe gastrointestinal toxicity with daily dosing compared to three times/week dosing”. For the same compound, the Survival (Sprague Dawley rats; rats, 2 of 3 female TK animals, daily doses of 1.3 mg/kg) was “euthanized on Day 10 due to poor condition”, the Survival (Sprague Dawley rats; rats, TK animals, daily doses of 4.3 mg/kg) was “found dead on Days 7, 8, or 10” and the Survival (Sprague Dawley rats; rats, all non-TK, male TK and 1 of 3 female TK animals, daily doses of 1.3 mg/kg) was “survived until the scheduled study termination”. For the same compound, the Survival (Sprague Dawley rats; rats, all non-toxicokinetic animals, 30 mg/kg 3 times/week) was “euthanized on Day 10 due to poor condition”, the Survival (Sprague Dawley rats; rats, animals given daily doses of 4.3 mg/kg (other than TK)) was “euthanized on Day 10 due to poor condition” and the Survival (Sprague Dawley rats; rats, non-TK animals given ≤10 mg/kg and TK animals given ≤3 mg/kg 3 times/week) was “survived until the scheduled study termination”. For the same compound, the Survival (Sprague Dawley rats; rats, two of three TK animals, 10 mg/kg 3 times/week) was “euthanized on Day 10 due to poor condition and the remaining TK animal was found dead prior to the 48 hr TK time point on Day 16”, the “% TGI” value [1] was 37.58 (<0.05 to % and the “% TGI” value [2] was 70.42 (<0.0001) %. For the same compound, the “% TGI” value [3] was 62.00 (<0.0001) %.
